Results as given in PMC12396409, “Screening and hit evaluation of a microbial metabolite library against the pathogenic Plasmodium falciparum and Toxoplasma gondii parasites” (International Journal for Parasitology: Drugs and Drug …, 2025).
Read-outs that look alike come from different tables or passages of the source.

Key:
[1] = system: T. gondii RH strain (RH-Tub-eYFP) tachyzoites; experiment: microbe, parasite or virus in culture; assay type: cell-based, Toxoplasma gondii; details: 72 h, % growth; for percent parasite growth at 2 µg/mL: Toxoplasma gondii
[2] = system: P. falciparum 3D7 parasites; experiment: P. falciparum growth inhibition assay, 1-cycle (72 h treatment), SYBR DNA staining (library screen at 2 μg/mL and dose-response); assay type: cell-based, Plasmodium falciparum; details: % growth; for activity at 2 µg/mL: Plasmodium falciparum, 3D7, 72 h
[3] = system: P. falciparum 3D7 parasites; experiment: P. falciparum growth inhibition assay, 2-cycle (120 h treatment), delayed-death screen and dose-response; assay type: cell-based, Plasmodium falciparum; details: % growth; for activity at 2 µg/mL: Plasmodium falciparum, 3D7, 120 h
[4] = library screen at 2 μg/mL, replicate 1
[5] = library screen at 2 μg/mL, replicate 2
[6] = library screen at 2 μg/mL, 72 h, replicate 1
[7] = library screen at 2 μg/mL, 72 h, replicate 2
[8] = library screen at 2 μg/mL, 120 h, replicate 1
[9] = library screen at 2 μg/mL, 120 h, replicate 2
[10] = T. gondii, parasite screen 2 μg/mL, replicate 1, read-out: Tg_72h_%Growth_Rep1
[11] = T. gondii, parasite screen 2 μg/mL, replicate 2, read-out: Tg_72h_%Growth_Rep2
[12] = P. falciparum, 72 h, parasite screen 2 μg/mL, replicate 1, read-out: Pf_72h_%Growth_Rep1
[13] = P. falciparum, 72 h, parasite screen 2 μg/mL, replicate 2, read-out: Pf_72h_%Growth_Rep2
[14] = P. falciparum, 120 h, parasite screen 2 μg/mL, replicate 1, read-out: Pf_120h_%Growth_Rep1
[15] = P. falciparum, 120 h, parasite screen 2 μg/mL, replicate 2, read-out: Pf_120h_%Growth_Rep2

CCCCCCCCCCCC[C@@H](C(=O)O)[C@H](C)C(=O)O [Roccellic acid]
Tg_72h_%Growth_Rep1 ([1]; T. gondii, parasite screen 2 μg/mL, replicate 1): 114.12%
Tg_72h_%Growth_Rep2 ([1]; T. gondii, parasite screen 2 μg/mL, replicate 2): 89.45%
Pf_72h_%Growth_Rep1 ([2]; P. falciparum, 72 h, parasite screen 2 μg/mL, replicate 1): 81.49%
Pf_72h_%Growth_Rep2 ([2]; P. falciparum, 72 h, parasite screen 2 μg/mL, replicate 2): 118.80%
Pf_120h_%Growth_Rep1 ([3]; P. falciparum, 120 h, parasite screen 2 μg/mL, replicate 1): 69.96%
Pf_120h_%Growth_Rep2 ([3]; P. falciparum, 120 h, parasite screen 2 μg/mL, replicate 2): 129.33%

COC12c3c(C)cc(O)c4c(=O)occ(c34)C(=O)C1C13COC(=O)c4c(O)cc(C)c(c41)C(=O)C2C3OC(C)=O (stereo not drawn) [Duclauxin]
Tg_72h_%Growth_Rep1 [1, 4]: 149.61%
Tg_72h_%Growth_Rep2 [1, 5]: 92.65%
Pf_72h_%Growth_Rep1 [2, 6]: 87.43%
Pf_72h_%Growth_Rep2 [2, 7]: 79.39%
Pf_120h_%Growth_Rep1 [3, 8]: 87.90%
Pf_120h_%Growth_Rep2 [3, 9]: 120.62%

COC1C(O)CC(=O)OC(C)CC=CC=CC(O)C(C)CC(CC=O)C1OC1OC(C)C(OC2CC(C)(O)C(OC(=O)CC(C)C)C(C)O2)C(N(C)C)C1O (stereo not drawn) [BIA-L1538]
Tg_72h_%Growth_Rep1 ([1]; T. gondii RH, library screen at 2 μg/mL, replicate 1): 16.93%
Tg_72h_%Growth_Rep2 ([1]; T. gondii RH, library screen at 2 μg/mL, replicate 2): 20.94%
Pf_72h_%Growth_Rep1 ([2]; P. falciparum 3D7, 72 h, library screen at 2 μg/mL, replicate 1): 49.92%
Pf_72h_%Growth_Rep2 ([2]; P. falciparum 3D7, 72 h, library screen at 2 μg/mL, replicate 2): 67.33%
Pf_120h_%Growth_Rep1 ([3]; P. falciparum 3D7, 120 h, library screen at 2 μg/mL, replicate 1): 5.60%
Pf_120h_%Growth_Rep2 ([3]; P. falciparum 3D7, 120 h, library screen at 2 μg/mL, replicate 2): 17.51%

C=C1NC(=O)c2nc(oc2C)C(=C)NC(=O)[C@H](C(C)(C)O)NC(=O)C(=C)NC(=O)c2nc(oc2C)/C(=C/C)NC(=O)[C@H]([C@@H](C)O)NC(=O)c2csc(n2)-c2ccc(C(N)=O)nc2-c2coc(n2)C(=C)NC1=O [Berninamycin D]
Tg_72h_%Growth_Rep1 [1, 4]: 81.74%
Tg_72h_%Growth_Rep2 [1, 5]: 94.54%
Pf_72h_%Growth_Rep1 [2, 6]: 102.21%
Pf_72h_%Growth_Rep2 [2, 7]: 89.93%
Pf_120h_%Growth_Rep1 [3, 8]: 147.66%
Pf_120h_%Growth_Rep2 [3, 9]: 98.89%

C[C@@H]1[C@H](O)[C@@H](C)/C=C/C=C/C=C/C=C/C=C/C=C/C=C/[C@H](O[C@@H]2O[C@H](C)[C@@H](O)[C@H](N)[C@@H]2O)C[C@@H]2O[C@](O)(C[C@@H](O)C[C@@H](O)[C@H](O)CC[C@@H](O)C[C@@H](O)CC(=O)O[C@H]1C)C[C@H](O)[C@H]2C(=O)O [Amphotericin B]
percent parasite growth at 2 µg/mL ([1]; library screen at 2 μg/mL, replicate 1, read-out: Tg_72h_%Growth_Rep1): 101%
percent parasite growth at 2 µg/mL ([1]; library screen at 2 μg/mL, replicate 2, read-out: Tg_72h_%Growth_Rep2): 86.5%
activity at 2 µg/mL ([2]; library screen at 2 μg/mL, 72 h, replicate 1, read-out: Pf_72h_%Growth_Rep1): 84.3%
activity at 2 µg/mL ([2]; library screen at 2 μg/mL, 72 h, replicate 2, read-out: Pf_72h_%Growth_Rep2): 90.2%
activity at 2 µg/mL ([3]; library screen at 2 μg/mL, 120 h, replicate 1, read-out: Pf_120h_%Growth_Rep1): 77%
activity at 2 µg/mL ([3]; library screen at 2 μg/mL, 120 h, replicate 2, read-out: Pf_120h_%Growth_Rep2): 69.3%

CN(C)c1ncnc2c1ncn2[C@@H]1O[C@H](CO)[C@@H](N)[C@H]1O [Puromycin aminonucleoside]
percent parasite growth at 2 µg/mL [1, 10]: -2.04%
percent parasite growth at 2 µg/mL [1, 11]: 0.2%
activity at 2 µg/mL [2, 12]: 78%
activity at 2 µg/mL [2, 13]: 105%
activity at 2 µg/mL [3, 14]: 69.5%
activity at 2 µg/mL [3, 15]: 57.6%

CC[C@H](C)C(=O)O[C@H]1C[C@H](O)C=C2C=C[C@H](C)[C@H](CC[C@@H](O)C[C@@H](O)CC(=O)O)[C@H]21 [Pravastatin sodium]
percent parasite growth at 2 µg/mL [1, 10]: 92.2%
percent parasite growth at 2 µg/mL [1, 11]: 94.6%
activity at 2 µg/mL [2, 12]: 83.8%
activity at 2 µg/mL [2, 13]: 99.3%
activity at 2 µg/mL [3, 14]: 96.8%
activity at 2 µg/mL [3, 15]: 111%

COc1c(C)c2c(c(O)c1C/C=C(\C)CCC(=O)O)C(=O)OC2 [BIA-M1207]
Tg_72h_%Growth_Rep1 ([1]; T. gondii, parasite screen at 2 μg/mL, replicate 1): 1.75%
Tg_72h_%Growth_Rep2 ([1]; T. gondii, parasite screen at 2 μg/mL, replicate 2): 2.10%
Pf_72h_%Growth_Rep1 ([2]; P. falciparum 3D7, 72 h, parasite screen at 2 μg/mL, replicate 1): 27.32%
Pf_72h_%Growth_Rep2 ([2]; P. falciparum 3D7, 72 h, parasite screen at 2 μg/mL, replicate 2): 1.32%
Pf_120h_%Growth_Rep1 ([3]; P. falciparum 3D7, 120 h, parasite screen at 2 μg/mL, replicate 1): 16.21%
Pf_120h_%Growth_Rep2 ([3]; P. falciparum 3D7, 120 h, parasite screen at 2 μg/mL, replicate 2): 22.24%

COc1ccc2c3c([nH]c2c1)[C@H](C=C(C)C)N1C(=O)[C@@H]2CCCN2C(=O)[C@@H]1C3 [Fumitremorgin C]
Tg_72h_%Growth_Rep1 [1, 4]: 152.38%
Tg_72h_%Growth_Rep2 [1, 5]: 98.57%
Pf_72h_%Growth_Rep1 [2, 6]: 84.21%
Pf_72h_%Growth_Rep2 [2, 7]: 83.65%
Pf_120h_%Growth_Rep1 [3, 8]: 98.00%
Pf_120h_%Growth_Rep2 [3, 9]: 92.77%
